Ends that are not written are not given here. * marks the point of attachment. Palmitoyl = CCCCCCCCCCCCCCCC(=O)*
Key:
ob/ob mice [1] = assay: 14 once-daily injections of GIP analogues in ob/ob mice; assay type: in vivo, mouse; settings: 14 days daily, insulin 50 U/kg
Experimental: (§1) Animals. Obese diabetic (ob/ob) mice derived from the colony maintained at Aston University, UK (Bailey C. J. et al., 1982, Int. J. Obes. 6:11-21) were used at 14-18 weeks of age. Animals were age-matched, divided into groups and housed individually in an air-conditioned room at 22±2° C. with a 12 hour light: 12 hour dark cycle (08:00-20:00 hr). Drinking water and a standard rodent maintenance diet (Trouw Nutrition, Cheshire, UK) were freely available. All animal experiments were carried out in accordance with the UK Animals (Scientific Procedures) Act 1986.
Methods. […] Intraperitoneal glucose tolerance (18 mmol/kg body wt) and insulin sensitivity (50 U/kg body wt) tests were performed at the end of the study period. Blood samples taken from the cut tip of the tail vein of conscious mice at the times indicated in the Figures were immediately centrifuged using a Beckman microcentrifuge (Beckman Instruments, UK) for 30 seconds at 13,000×g. The resulting plasma was then aliquoted into fresh Eppendorf tubes and stored at −20° C. prior to glucose and insulin determinations.

BRIN-BD11 cells = assay: Insulin secretion from BRIN-BD11 cells; assay type: cell-based; settings: for Maximal insulin response (% GIP max) / Insulin response in presence of 10^-7 M GIP (% GIP max): BRIN-BD11 cells, 5.6 mm glucose; for Maximal insulin response (% GIP max): 20 min; for Insulin response in presence of 10^-7 M GIP (% GIP max): in presence of 10^-7 M native GIP; for effect on GIP-stimulated insulin secretion: in presence of GIP (10^-7 m)
Experimental: (§2) Tissue Culture. Chinese Hamster Lung (CHL) fibroblast cells stably transfected with the human GIP-R were cultured in DMEM tissue culture medium containing 10%. (v/v) fetal bovine serum, 1% (v/v) antibiotics (100 U/ml penicillin, 0.1 mg/ml streptomycin) (all from Gibco, Paisley, Strathclyde, Scotland). BRIN-BD11 cells were cultured in RPMI-1640 tissue culture medium containing 10% (v/v) fetal bovine serum, 1% (v/v) antibiotics (100 U/ml penicillin, 0.1 mg/ml streptomycin) and 11.1 mm glucose. The origin and secretory characteristics of these cells have been described in detail previously (McClenaghan, N. H. et al., 1996, Diabetes 45:1132-1140). The cells were maintained in sterile tissue culture flasks (Corning Glass Works, Sunderland, UK) at 37° C. in an atmosphere of 5% CO2 and 95% air using a LEEC incubator (Laboratory Technical Engineering, Nottingham, UK).
Methods. Insulin release from BRIN-BD11 cells was determined by use of cell monolayers as described previously (Gault, V. A. et al. 2002, Biochem. J. 367:913-920). In brief, BRIN-BD11 cells were seeded into 24-well plates (Nunc, Roskilde, Denmark) at a density of 1.5×10^5 cells per well and allowed to attach overnight in RPMI-1640 culture medium at 37° C. Acute tests for insulin secretion were preceded by 40 minutes pre-incubation at 37° C. in 1.0 ml Krebs Ringer Bicarbonate Buffer (KRBB, 115 mm NaCl, 4.7 mm KCl, 1.28 mm CaCl2, 1.2 mM MgSO4, 1.2 mm KH2PO4, 25 mM HEPES and 10 mm NaHCO3; pH 7.4 with NaOH) supplemented with 0.1% (w/v) BSA and 1.1 mM glucose. […] After 20 minutes incubation, the buffer was removed and used for measurement of insulin by radioimmunoassay (Flatt, P. R. and Bailey, C. J., 1981, Diabetologia 5:573-577).

DPP-IV = DPP-IV (Homo sapiens, UniProt P27487); assay: Degradation of GIP and Glu3-substituted GIP analogs by DPP-IV (HPLC); assay type: in vitro ADME; settings: for half-life at 2 μm: DPP-IV enzyme (5 mU) in buffer, pH 7.8, incubation with DPP-IV, unit not given (time points in hrs), read-out: Estimated Half-Life (converted); for Intact Peptide Remaining (%) 0 hrs. / remaining at 2 h, 2 μm / remaining at 4 h, 2 μm / remaining at 8 h, 2 μm: incubation with DPP-IV (5 mU), 37°C; for Intact Peptide Remaining (%) 0 hrs.: pH 7.8, 0 hrs; for remaining at 2 h, 2 μm / remaining at 4 h, 2 μm / remaining at 8 h, 2 μm: isolated DPP-IV enzyme (5 mU); for remaining at 2 h, 2 μm: pH 7.8, 2 hrs, read-out: Intact Peptide Remaining (%) 2 hrs.; for remaining at 4 h, 2 μm: pH 7.8, 4 hrs, read-out: Intact Peptide Remaining (%) 4 hrs.; for remaining at 8 h, 2 μm: pH 7.8, 8 hrs, read-out: Intact Peptide Remaining (%) 8 hrs.
human GIP-R = molecular target: T1, human GIP-R (Homo sapiens, UniProt P48546); assay: Cyclic AMP production in GIP-R transfected CHL cells; assay type: cell-based; settings: for inhibition of GIP-stimulated cAMP production: in presence of GIP (10^-7 m); for remaining activity at 0.1 µM: CHL, read-out: cAMP response in presence of 10^-7 M GIP (% GIP max)
T1 construct: expressed in transfected cells; host or cells: Chinese Hamster Lung (CHL) fibroblast cells, stably transfected
T1 sequence (P48546 22-466): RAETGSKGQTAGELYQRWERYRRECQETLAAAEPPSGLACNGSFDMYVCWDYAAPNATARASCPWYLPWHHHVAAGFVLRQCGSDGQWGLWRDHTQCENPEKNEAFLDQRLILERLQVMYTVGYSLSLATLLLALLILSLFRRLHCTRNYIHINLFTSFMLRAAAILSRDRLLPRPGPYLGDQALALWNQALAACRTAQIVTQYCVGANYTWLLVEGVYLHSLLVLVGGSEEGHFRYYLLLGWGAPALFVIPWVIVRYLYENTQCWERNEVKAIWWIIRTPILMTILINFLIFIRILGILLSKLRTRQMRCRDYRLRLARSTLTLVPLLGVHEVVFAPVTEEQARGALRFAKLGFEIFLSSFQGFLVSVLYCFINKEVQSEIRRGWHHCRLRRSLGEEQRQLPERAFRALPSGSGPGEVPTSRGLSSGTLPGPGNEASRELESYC
Experimental: as §2, with “Chinese Hamster Lung (CHL) fibroblast cells stably transfected with the human GIP-R were cultured in DMEM tissue culture medium containing 10%.” left out
Methods. […] The culture medium was removed and cells subsequently washed twice with 2 ml ice-cold HBS buffer (130 mm NaCl, 20 mm HEPES, 0.9 mm NaHPO4, 0.8 mm MgSO4, 5.4 mm KCl, 1.8 mm CaCl2, 5.6 mm glucose and 25 μm phenol red) (pH 7.4). […] The medium was subsequently removed and the cells lysed with […] of lysing solution (5% TCA, 3% SDS, 92% H2O, also containing 0.1 mm unlabelled cAMP and 0.1 mm unlabelled ATP) (Sigma, Poole, Dorset, UK). The plates were then left on a shaker at room temperature for 30 minutes and tritiated cAMP formation determined by column chromatography using Dowex and alumina ion exchange columns (BioRad Life Science Research, Alpha Analytical, Larne, UK) as previously described (Gault, V. A. et al 2002, Biochem. J. 367:913-920).

ob/ob mice [2] = assay: Acute antihyperglycaemic and insulin releasing activity with glucose and native GIP in ob/ob mice; assay type: in vivo, mouse; settings: 25 nmol/kg i.p. with GIP and glucose 18 mmol/kg, vs native GIP
Experimental: as §1
Biochemical analysis. Plasma glucose was assayed by an automated glucose oxidase procedure ([…]) using a Beckman Glucose Analyzer II (Beckman Instruments, Galway, Ireland). Plasma insulin was assayed by radioimmunoassay.
Methods. […] All test solutions were administered in a final volume of 5 ml/kg body weight. Blood samples were collected from the cut tip of the tail vein of conscious mice into chilled fluoride/heparin coated glucose microcentrifuge tubes (Sarstedt, Numbrecht, Germany) immediately prior to injection and at 15, 30 and 60 minutes post injection. Blood samples were immediately centrifuged using a Beckmnan microcentrifuge (Beckman Instruments, High Wycombe, Buckinghamshire, UK) for 30 seconds at 13,000×g. Plasma glucose was assayed using a Beckman Glucose Analyzer n (Beckman Instruments, High Wycombe, Buckinghamshire, UK) (Stevens, J. F., 1971, Clin. Chim. Acta 32:199-201) and plasma insulin was determined by RIA (Flatt, P. R. and Bailey, C. J., 1981, Diabetologia 5:573-577). All animal studies were carried out in accordance with the UK Animals (Scientific Procedures) Act 1986.

Sequence of DPP-IV (P27487 whole entry, species assumed): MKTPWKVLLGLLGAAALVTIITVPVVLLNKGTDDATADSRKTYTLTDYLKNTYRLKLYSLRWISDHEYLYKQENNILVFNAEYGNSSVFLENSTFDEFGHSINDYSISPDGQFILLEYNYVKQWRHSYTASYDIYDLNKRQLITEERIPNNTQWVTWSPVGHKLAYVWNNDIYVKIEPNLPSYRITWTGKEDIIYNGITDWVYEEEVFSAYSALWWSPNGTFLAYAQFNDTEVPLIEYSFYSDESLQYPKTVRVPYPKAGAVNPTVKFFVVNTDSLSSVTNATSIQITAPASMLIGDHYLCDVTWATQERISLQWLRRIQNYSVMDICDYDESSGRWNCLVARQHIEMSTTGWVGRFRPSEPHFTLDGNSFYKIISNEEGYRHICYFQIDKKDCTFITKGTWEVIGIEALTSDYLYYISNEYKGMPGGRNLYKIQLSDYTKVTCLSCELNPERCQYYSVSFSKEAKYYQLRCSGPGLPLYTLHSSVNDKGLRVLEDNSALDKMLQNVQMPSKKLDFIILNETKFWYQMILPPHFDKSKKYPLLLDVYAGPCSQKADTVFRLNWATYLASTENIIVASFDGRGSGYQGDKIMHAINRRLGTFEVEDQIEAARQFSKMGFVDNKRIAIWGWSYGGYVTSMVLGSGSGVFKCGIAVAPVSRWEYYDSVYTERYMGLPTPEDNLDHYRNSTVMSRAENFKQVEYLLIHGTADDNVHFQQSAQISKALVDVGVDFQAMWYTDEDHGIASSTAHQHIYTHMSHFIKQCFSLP

Row | Substance | hypoglycemic action of insulin (ob/ob mice [1]) | Maximal insulin response (% GIP max) (BRIN-BD11 cells) | Insulin response in presence of 10^-7 M GIP (% GIP max) (BRIN-BD11 cells) | half-life at 2 μm (DPP-IV) [h] | Intact Peptide Remaining (%) 0 hrs. (DPP-IV) [%] | remaining at 2 h, 2 μm (DPP-IV) [%] | remaining at 4 h, 2 μm (DPP-IV) [%] | remaining at 8 h, 2 μm (DPP-IV) [%] | EC50 (human GIP-R) [nM] | cAMP response in presence of 10^-7 M GIP (% GIP max) (human GIP-R; in presence of 10^-7 M native GIP) | inhibition of GIP-stimulated cAMP production (human GIP-R) | effect on GIP-stimulated insulin secretion (BRIN-BD11 cells) | resistance to DPP-IV degradation (DPP-IV; words, up to 8 hours incubation) | plasma glucose and insulin profiles when administered together with native GIP (ob/ob mice [2]) | remaining activity at 0.1 µM (human GIP-R) [%]
1 | YAPGTFISDYSIAMDK(Palmitoyl)IHQQDFVNWLLAQKGKKNDWKHNITQ [(Pro^3)LysPAL^16GIP] | significantly augmented | 48 ± 4 | 61 ± 3 | > 8 | 100 | 100 | 100 | 100 | 870 | 63 ± 5 | similarly inhibited |  |  |  | 
2 | YAKGTFISDYSIAMDKIHQQDFVNWLLAQKGKKNDWKHNITQ [(Lys^3)GIP] |  | 78 ± 3 | 78 ± 4 | 1.7 | 100 | 41.4 ± 0.3 | 14.9 ± 1.1 | 0 | 2.6 |  | significantly inhibited | significantly inhibited | significantly more resistant | did not significantly alter | 63.5 ± 4
3 | YAYGTFISDYSIAMDKIHQQDFVNWLLAQKGKKNDWKHNITQ [(Tyr^3)GIP] |  | 75 ± 4 | 93 ± 2 | 1.5 | 100 | 34.1 ± 4.1 | 6.3 ± 3.1 | 0 | 1.5 |  | did not significantly inhibit | did not significantly affect |  | significantly inhibited the action of GIP | 76 ± 4

Source: patent US20090170762A1, “Treatment of Diabetes Related Obesity” (UUTech Limited, priority 2005, published 2009)
